Data: patent US20210330611A1, “THERAPY FOR NEUROLOGICAL DISEASES/DISORDERS” (priority 2020, published 2021)
Read-outs that look alike come from different tables or passages of the source. *1 amine or outer side, *2 acyl side, *3 side chain or, on linkers, in order; H or OH if unused. Where a SMILES comes first, the peptide text is derived from it. Bridges are numbered along the chain shown (N, C = ends). Roman numbers before positions name the chains, in order. [ ]: non-standard residue; d: D form. Actinocin(9to1) = Cc1c2oc3c(C)ccc(C(=O)[*:1])c3nc-2c(C(=O)[*:2])c(N)c1=O; NMeV = CN[C@H](C(=O)O)C(C)C; Sar = CNCC(=O)O

How the values were obtained:
Format in all cases: cell-based, rat
[1] = tested on: fibrin-induced microglia activation; experiment: Image-based assay of fibrin-induced microglia activation (HTS and dose response); conditions: for inhibition at 10 µM / IC50: Rattus norvegicus, Microglia; for inhibition at 10 µM: read-out: Fibrin % inhibition
[2] = tested on: LPS-induced microglia activation; experiment: Image-based assay of LPS-induced microglia activation (HTS and dose response); conditions: for inhibition at 10 µM / IC50: Rattus norvegicus, Microglia; for inhibition at 10 µM: read-out: LPS % inhibition
[3] = tested on: fibrin- and LPS-induced microglia activation; experiment: cells
[4] = primary microglia HTS, fibrin stimulation, compounds at 10 μM
[5] = primary microglia HTS, LPS stimulation, compounds at 10 μM
[6] = quadrant by fibrin and LPS inhibition, HTS at 10 μM
[7] = Table 7, fib = fibrin, LPS, tox = toxicity
[8] = primary microglia HTS, fibrin stimulation, increased cell size (>800 μm^2) as marker of activation
[9] = 48 h, primary microglia HTS, LPS stimulation, increased cell size (>800 μm^2) as marker of activation
[10] = quadrant by fibrin and LPS inhibition in HTS of 1907 compounds

CC(=O)OCC(=O)[C@@]1(O)CC[C@H]2[C@@H]3C[C@H](C)C4=CC(=O)C=C[C@]4(C)[C@H]3[C@@H](O)C[C@@]21C [6alpha-methylprednisolone acetate]
fib specificity [1]: 1.0 | fib_HS [1]: −0.26 | LPS specificity [2]: 1.0 | LPS_HS [2]: −0.40 | Activity [3]: fib/LPS

CC(=O)Oc1c(C)c(C)c2c(c1C)CCC(C)(CCCC(C)CCCC(C)CCCC(C)C)O2 (stereo not drawn) [Alpha-tochopheryl Acetate]
Fibrin % inhibition [1, 4]: 22% | LPS % inhibition [2, 5]: 8% | Quadrant (FIG. 5b) [3, 6]: Q4

O=C(CCBr)N1CCN(C(=O)CCBr)CC1 [Pipobroman]
inhibition at 10 µM [1]: -28% | inhibition at 10 µM ([2]; 48 h): 0% | Quadrant (FIG. 5b) [3]: Q4

CC(C)CCCCCOC(=O)COc1ccc(Cl)cc1Cl
IC50 ([1]; Table 7, read-out: fib_IC50): 0.906 µM | IC50 ([2]; Table 7, read-out: LPS_IC50): 1.01 µM | Activity [3, 7]: fib/LPS

Cc1c2oc3c(C)ccc(C(=O)N[C@@H]4C(=O)N[C@H](C(C)C)C(=O)N5CCC[C@H]5C(=O)N(C)CC(=O)N(C)[C@@H](C(C)C)C(=O)O[C@@H]4C)c3nc-2c(C(=O)N[C@@H]2C(=O)N[C@H](C(C)C)C(=O)N3CCC[C@H]3C(=O)N(C)CC(=O)N(C)[C@@H](C(C)C)C(=O)O[C@@H]2C)c(N)c1=O [Dactinomycin] (I: T[dV]P[Sar][NMeV] / II: T[dV]P[Sar][NMeV]; ester I:1-I:C, II:1-II:C; linker I:N-II:N via Actinocin(9to1))
inhibition at 10 µM [1, 8]: 106% | inhibition at 10 µM [2, 9]: 106% | Quadrant (FIG. 5b) [3, 10]: Q2

CC1=C(C(=O)O)N2C(=O)[C@@H](NC(=O)[C@H](N)c3ccccc3)[C@H]2SC1 [Cephalexin]
inhibition at 10 µM [1]: -1% | inhibition at 10 µM [2]: 17% | Quadrant (FIG. 5b) [3]: Q4

N=C(N)NCCN1CCCCCCC1 [Guanethidine]
inhibition at 10 µM [1]: -44% | inhibition at 10 µM ([2]; 48 h): 12% | Quadrant (FIG. 5b) [3]: Q4

C[C@]12CC[C@H]3[C@@H](CCC4=CC(=O)CC[C@@]43C)[C@@H]1CC[C@@H]2O [Testosterone]
inhibition at 10 µM [1]: -1% | inhibition at 10 µM [2]: 5% | Quadrant (FIG. 5b) [3]: Q4

C#C[C@]1(O)CC[C@H]2[C@@H]3CCC4=C(CCC(=O)C4)[C@H]3CC[C@@]21C [Norethynodrel]
inhibition at 10 µM [1]: 1% | inhibition at 10 µM ([2]; 48 h): 10% | Quadrant (FIG. 5b) [3]: Q4

NS(=O)(=O)c1cc(C(=O)O)c(NCc2ccco2)cc1Cl [Furosemide]
inhibition at 10 µM [1]: -5% | inhibition at 10 µM ([2]; 48 h): 25% | Quadrant (FIG. 5b) [3]: Q4

Nc1ccc(C(=O)Oc2ccccc2)c(O)c1 [Fenamisal, Phenyl Aminosalicylate]
Fibrin % inhibition [1, 4]: −8% | LPS % inhibition [2, 5]: 16% | Quadrant (FIG. 5b) ([3]; classification by fibrin and LPS inhibition, HTS at 10 μM): Q4

Cc1nc(Nc2ncc(C(=O)Nc3c(C)cccc3Cl)s2)cc(N2CCN(CCO)CC2)n1 [Dasatinib]
inhibition at 10 µM [1, 8]: 109% | inhibition at 10 µM [2, 9]: 70% | Quadrant (FIG. 5b) [3, 10]: Q2

Cc1cnc(C(=O)NCCc2ccc(S(=O)(=O)NC(=O)NC3CCCCC3)cc2)cn1 [Glipizide]
inhibition at 10 µM [1]: 12% | inhibition at 10 µM ([2]; 48 h): 18% | Quadrant (FIG. 5b) [3]: Q4

CC(C)[N+]1(C)[C@@H]2CC[C@H]1CC(OC(=O)C(CO)c1ccccc1)C2.[Br-] (stereo partly drawn) [Ipratropium Bromide]
Fibrin % inhibition [1]: 6% | LPS % inhibition [2]: 8% | Quadrant (FIG. 5b) [3]: Q4

CC(=O)OCC(=O)[C@@]12OC(C)(C)O[C@@H]1C[C@H]1[C@@H]3C[C@H](F)C4=CC(=O)C=C[C@]4(C)[C@@]3(F)[C@@H](O)C[C@@]12C [Fluocinonide, reference compound]
inhibition at 10 µM [1]: 112% | IC50 ([1]; read-out: fib_IC50 (uM)): 0.002 µM | inhibition at 10 µM ([2]; 48 h): 106% | IC50 ([2]; read-out: LPS_IC50 (uM)): 0.002 µM | Activity [3]: fib/LPS | Quadrant (FIG. 5b) [3]: Q2

C[C@]12C=CC(=O)C=C1CC[C@@H]1[C@@H]2[C@@H](O)C[C@@]2(C)[C@H]1CC[C@]2(O)C(=O)CO [Prednisolone, reference compound]
IC50 ([1]; Table 7, read-out: fib_IC50): 0.002 µM | inhibition at 10 µM [1, 4]: 97% | inhibition at 10 µM [1, 8]: 114% | inhibition at 10 µM [2, 9]: 100% | IC50 ([2]; Table 7, read-out: LPS_IC50): 0.002 µM | inhibition at 10 µM [2, 5]: 87% | Quadrant (FIG. 5b) ([3]; Table 2, screen at 10 μM): Q2 | Activity [3, 7]: fib/LPS | Quadrant (FIG. 5b) [3, 10]: Q2 | Quadrant (FIG. 5b) [3, 6]: Q2

CN(C)c1ccc(O)c2c1C[C@H]1C[C@H]3[C@H](N(C)C)C(O)=C(C(N)=O)C(=O)[C@@]3(O)C(O)=C1C2=O [Minocycline]
inhibition at 10 µM [1, 8]: -6% | inhibition at 10 µM [2, 9]: 16% | Quadrant (FIG. 5b) [3, 10]: Q4
